Where two headings read alike, the source gives them in different places.

Experimental findings from US12338220B2, “Antiviral pyrazolopiridinone compounds” (Novartis AG, priority 2019, dated 2025) are described below.

The target of assay [1] is HSV-polymerase (Human herpesvirus 1 (strain 17) (HHV-1) (Human herpes simplex virus 1), UniProt P04293). Kind of assay: biochemical.
Assay [2] has as its target CMV-polymerase (Human cytomegalovirus (strain AD169) (HHV-5) (Human herpesvirus 5), UniProt P08546). Kind of assay: biochemical.
Assay [3] has as its system CMV. As to the kind of experiment: microbe, parasite or virus in culture. The assay is classed as cell-based. The following applies: Human betaherpesvirus 5, 72 h, read-out: CMV-Luc Cellular EC50, NN-NHDF cells, MOI 1, 72 hrs.
Setting [4] is: read-out: CMV-polymerase Biochemical IC50.
Where [5] appears, read: CMV-polymerase Biochemical IC50.

As to `Cn1nc(C(=O)NCc2ccc(C#N)cc2)c2c1C(=O)N(CC1(S(=O)(=O)C(C)(C)COC(F)CN)CC1)CC2` (single isomer, unassigned) [Example 83, (R)- or (S)-6-((1-((1-(2-Amino-1-fluoroethoxy)-2-methylpropan-2-yl)sulfonyl)cyclopropyl)methyl)-N-(4-cyanobenzyl)-1-methyl-7-oxo-4,5,6,7-tetrahydro-1H-pyrazolo[3,4-c]pyridine-3-carboxamide], the IC50 in assay [1] is 0.071 µM; in assay [2] (setting [4]), 0.001 µM.

Turning to `Cn1nc(C(=O)NCc2ccc(C#N)cc2)c2c1C(=O)N(CC1(S(=O)(=O)C(C)(C)COC(F)CO)CC1)CC2` (single isomer, unassigned) [Example 81, (R)- or (S)-N-(4-cyanobenzyl)-6-((1-((1-(1-fluoro-2-hydroxyethoxy)-2-methylpropan-2-yl)sulfonyl)cyclopropyl)methyl)-1-methyl-7-oxo-4,5,6,7-tetrahydro-1H-pyrazolo[3,4-c]pyridine-3-carboxamide], the IC50 came out at 0.046 µM in assay [1] and 0.003 µM in assay [2] (setting [5]). The compound `Cn1nc(C(=O)NCc2ccc(C#N)cc2)c2c1C(=O)N(CC1(S(=O)(=O)C3(C(O)CO)CC3)CC1)CC2` (single isomer, unassigned) [Example 195, (R)- or (S)-N-(4-Cyanobenzyl)-6-((1-((1-(1,2-dihydroxyethyl)cyclopropyl)sulfonyl)cyclopropyl)methyl)-1-methyl-7-oxo-4,5,6,7-tetrahydro-1H-pyrazolo[3,4-c]pyridine-3-carboxamide] gave an IC50 in assay [1] of 0.023 µM. `Cn1nc(C(=O)NCc2ccc(Cl)cc2)c2c1C(=O)N(CC1(S(=O)(=O)NCC(C)(C)O)CC1)CC2` [Example 152, N-(4-Chlorobenzyl)-6-((1-(N-(2-hydroxy-2-methylpropyl)sulfamoyl)cyclopropyl)methyl)-1-methyl-7-oxo-4,5,6,7-tetrahydro-1H-pyrazolo[3,4-c]pyridine-3-carboxamide]: the IC50 in assay [2] (setting [4]) stood at 0.03 µM. Also, the EC50 in assay [3] was determined as 0.834 µM.

Take `CC(C)(CO)S(=O)(=O)C1(CN2CCc3c(C(=O)NCc4ccc(C#N)cc4)nn(CCOCCBr)c3C2=O)CC1` [Example 238, 1-(2-(2-bromoethoxy)ethyl)-N-(4-cyanobenzyl)-6-((1-((1-hydroxy-2-methylpropan-2-yl)sulfonyl)cyclopropyl)methyl)-7-oxo-4,5,6,7-tetrahydro-1H-pyrazolo[3,4-c]pyridine-3-carboxamide]: the half-maximal inhibitory concentration (IC50) in assay [2] (setting [4]) is 0.001 µM. In addition, the EC50 in assay [3] came out at 0.016 µM. For the compound `Cn1nc(C(=O)NCc2ccc(C#N)cc2)c2c1C(=O)N(CC1(S(=O)(=O)[C@H]3C[C@H](O)C3)CC1)CC2` [Example 120, N-(4-Cyanobenzyl)-6-((1-(((1r,3r)-3-hydroxycyclobutyl)sulfonyl)cyclopropyl)methyl)-1-methyl-7-oxo-4,5,6,7-tetrahydro-1H-pyrazolo[3,4-c]pyridine-3-carboxamide], the IC50 in assay [2] (setting [5]) amounted to 0.003 µM. In assay [3], the EC50 was determined as 0.151 µM. `O=C(NCc1ccc(Cl)cc1)c1nn(CCO)c2c1CCN(CC1(S(=O)(=O)C3CC3)CC1)C2=O` [Example 218, N-(4-Chlorobenzyl)-6-((1-(cyclopropylsulfonyl)cyclopropyl)methyl)-1-(2-hydroxyethyl)-7-oxo-4,5,6,7-tetrahydro-1H-pyrazolo[3,4-c]pyridine-3-carboxamide]: the IC50 in assay [2] (setting [4]) turned out to be 0.006 µM. In addition, in assay [3], the half-maximal effective concentration (EC50) stood at 0.042 µM. As for `Cn1nc(C(=O)NCc2ccc(C#N)cc2)c2c1C(=O)N(CC1(S(=O)(=O)Nc3ccccn3)CC1)CC2` [Example 155, N-(4-cyanobenzyl)-1-methyl-7-oxo-6-((1-(N-(pyridin-2-yl)sulfamoyl)cyclopropyl)methyl)-4,5,6,7-tetrahydro-1H-pyrazolo[3,4-c]pyridine-3-carboxamide], in assay [2] (setting [5]), the IC50 amounted to 0.002 µM. Moreover, the EC50 in assay [3] was determined as 0.057 µM. As to `CS(=O)(=O)C1(CN2CCc3c(C(=O)NCc4ccc(Cl)cc4)nn(CCO)c3C2=O)CC1` [Example 219, N-(4-Chlorobenzyl)-1-(2-hydroxyethyl)-6-((1-(methylsulfonyl)cyclopropyl)methyl)-7-oxo-4,5,6,7-tetrahydro-1H-pyrazolo[3,4-c]pyridine-3-carboxamide], in assay [2] (setting [4]), the IC50 was 0.03 µM. In addition, the concentration giving a half-maximal response (EC50) in assay [3] came out at 0.207 µM. On to `COc1ncccc1NS(=O)(=O)C1(CN2CCc3c(C(=O)NCc4ccc(C#N)cc4)nn(C)c3C2=O)CC1` [Example 162, N-(4-Cyanobenzyl)-6-((1-(N-(2-methoxypyridin-3-yl)sulfamoyl)cyclopropyl)methyl)-1-methyl-7-oxo-4,5,6,7-tetrahydro-1H-pyrazolo[3,4-c]pyridine-3-carboxamide], for which the IC50 in assay [2] (setting [4]) turned out to be 0.001 µM. In addition, the EC50 in assay [3] was 0.03 µM. With `Cn1nc(C(=O)COc2ccc(C#N)cc2)c2c1C(=O)N(CC1(S(=O)(=O)C3CC3)CC1)CC2` [Example 25, 4-(2-(6-((1-(Cyclopropylsulfonyl)cyclopropyl)methyl)-1-methyl-7-oxo-4,5,6,7-tetrahydro-1H-pyrazolo[3,4-c]pyridin-3-yl)-2-oxoethoxy)benzonitrile], in assay [2] (setting [5]), the half-inhibitory concentration (IC50) worked out at 0.002 µM. Further, in assay [3], the EC50 amounted to 0.03 µM. With `Cn1nc(C(=O)NCc2ccc(C#N)cc2)c2c1C(=O)N(CC1(S(=O)(=O)N3CCOCC3)CC1)CC2` [Example 124, N-(4-Cyanobenzyl)-1-methyl-6-((1-(morpholinosulfonyl)cyclopropyl)methyl)-7-oxo-4,5,6,7-tetrahydro-1H-pyrazolo[3,4-c]pyridine-3-carboxamide], the IC50 in assay [2] (setting [4]) worked out at 0.006 µM. Moreover, in assay [3], the half-maximal effective concentration (EC50) amounted to 0.156 µM. Taken in the same sequence, the figures for `Cn1nc(C(=O)NCc2ccc(C#N)cc2F)c2c1C(=O)N(CC1(S(=O)(=O)C3CC3)CC1)CC2` [Example 13, N-(4-Cyano-2-fluorobenzyl)-6-((1-(cyclopropylsulfonyl)cyclopropyl)methyl)-1-methyl-7-oxo-4,5,6,7-tetrahydro-1H-pyrazolo[3,4-c]pyridine-3-carboxamide] were 0.006 µM and 0.102 µM.

For the compound `Cn1nc(C(=O)NCc2ccc(C#N)cc2)c2c1C(=O)N(CC1(S(=O)(=O)NC3CCNCC3)CC1)CC2` [Example 137, N-(4-Cyanobenzyl)-1-methyl-7-oxo-6-((1-(N-(piperidin-4-yl)sulfamoyl)cyclopropyl)methyl)-4,5,6,7-tetrahydro-1H-pyrazolo[3,4-c]pyridine-3-carboxamide], the half-inhibitory concentration (IC50) in assay [2] (setting [4]) stood at 0.044 µM. In addition, the concentration giving a half-maximal response (EC50) in assay [3] was 0.636 µM. Taken in the same sequence, the figures for `Cn1nc(C(=O)NCc2ccc(Cl)cc2)c2c1C(=O)N(CC1(S(C)(=O)=O)CC1)CC2` [Example 22, N-(4-Chlorobenzyl)-1-methyl-6-((1-(methylsulfonyl)cyclopropyl)methyl)-7-oxo-4,5,6,7-tetrahydro-1H-pyrazolo[3,4-c]pyridine-3-carboxamide] were 0.012 µM and 0.113 µM. Taken in the same sequence, the figures for `Cn1nc(C(=O)NCc2ccc(Cl)nc2)c2c1C(=O)N(CC1(S(=O)(=O)C(C)(C)CO)CC1)CC2` [Example 51, N-((6-Chloropyridin-3-yl)methyl)-6-((1-((1-hydroxy-2-methylpropan-2-yl)sulfonyl)cyclopropyl)methyl)-1-methyl-7-oxo-4,5,6,7-tetrahydro-1H-pyrazolo[3,4-c]pyridine-3-carboxamide] were 0.006 µM and 0.172 µM.
